Laboratory results from ChEMBL document CHEMBL3232969, “Structure-based design and synthesis of tricyclic IAP (Inhibitors of Apoptosis Proteins) inhibitors” (Bioorg Med Chem Lett, 2014).
pIC50: −log10 of the molar value.

Columns and labels:
[1] = (§1) Percentage unbound in human plasma; details: Fu
[2] = Aqueous solubility of the compound
[3] = Lipophilicity, log D of the compound; details: octanol/water
[4] = (§2) Intrinsic clearance in human liver microsomes; details: liver microsomes, CLH
[5] = target: Baculoviral IAP repeat-containing protein 2 (Homo sapiens, UniProt Q13490)
Description: Inhibition of cIAP1 BIR3 domain (unknown origin) by fluorescence polarization assay

MDA-MB-231 = assay: Growth inhibition of human MDA-MB-231 cells; format: functional
[6] = target: E3 ubiquitin-protein ligase XIAP (Homo sapiens, UniProt P98170); assay: Inhibition of XIAP BIR3 domain (unknown origin) by fluorescence polarization assay
Plasma = assay: as §1
Liver microsome = assay: as §2; details: microsomes
[7] = target: Voltage-gated inwardly rectifying potassium channel KCNH2 (Homo sapiens, UniProt Q12809); assay: Inhibition of human ERG
[8] = Inhibition of Cytochrome P450 (unknown origin); format: ADME; details: human
[9] = Intrinsic clearance in rat microsomes; format: ADME, Microsome

Row | fraction unbound [1] | solubility [2] | logD ([3]; logD) | microsomal CLint [4] | pIC50 [5] | GI50 (MDA-MB-231; Homo sapiens, MDA-MB-231) | GI50 (MDA-MB-231) | Compound | other results
1 | 0.057 | > 1000 µM | 2.5 | 32 µL/min/mg | 7.57 | – | – | CN[C@@H](C)C(=O)N[C@H](C(=O)N1CC[C@H]2CCN(CCc3ccccc3)C[C@H]21)C1CCCCC1 | –
2 | – | – | – | – | 7.30 | – | – | CN[C@@H](C)C(=O)N[C@H]1CCC[C@H]2SC(C)(C)C(C(=O)Nc3cc(C)nn3-c3ccccc3)N2C1=O (stereo partly specified) | –
3 | 0.48 | > 1000 µM | 1.3 | < 4 µL/min/mg | 7.68 | 120 nM | – | CN[C@@H](C)C(=O)N[C@H]1CCC[C@H]2C[C@H]3CCN(CCc4ccc(F)cc4)C[C@H]3N2C1=O | –
4 | 0.49 | > 1000 µM | 1.5 | 5 µL/min/mg | – | 1300 nM | – | CN[C@@H](C)C(=O)N[C@H]1CCC[C@H]2C[C@H]3CCN(CCC4CCCCC4)C[C@H]3N2C1=O | pIC50 [6]: < 5.00
5 | – | – | – | – | 5.92 | – | – | CCCCN1CC[C@@H]2C[C@@H]3CCC[C@H](NC(=O)[C@H](C)NC)C(=O)N3[C@@H]2C1 | pIC50 [6]: < 5.00
6 | > 0.7 | > 1000 µM | -0.4 | 7.05 µL/min/mg | < 5.00 | – | – | CN[C@@H](C)C(=O)N[C@H]1CCC[C@H]2C[C@H]3CCN(C(=O)c4ccccc4)C[C@H]3N2C1=O | pIC50 [6]: < 5.00
7 | 0.4 | > 1000 µM | 0.4 | 25 µL/min/mg | 5.55 | > 11000 nM | – | CN[C@@H](C)C(=O)N[C@H]1CCC[C@H]2C[C@H]3CCN(S(=O)(=O)Cc4ccccc4)C[C@H]3N2C1=O | –
8 | 0.2 | > 1000 µM | 0.7 | 7.1 µL/min/mg | 5.10 | – | – | CN[C@@H](C)C(=O)N[C@H]1CCC[C@H]2C[C@H]3CCN(S(=O)(=O)c4ccccc4)C[C@H]3N2C1=O | –
9 | 0.18 | – | 1.4 | < 4 µL/min/mg | 6.74 | 2500 nM | – | CN[C@@H](C)C(=O)N[C@H]1CCC[C@H]2C[C@H]3CCN(CC(C)c4ccccc4)C[C@H]3N2C1=O (mixture of isomers) | –
10 | – | – | – | – | – | – | 200 nM | CN[C@@H](C)C(=O)N[C@H]1CCC[C@H]2C[C@H]3CCN(C(=O)C(OCC#CC#CCOC(C(=O)N4CC[C@@H]5C[C@@H]6CCC[C@H](NC(=O)[C@H](C)NC)C(=O)N6[C@@H]5C4)c4ccccc4)c4ccccc4)C[C@H]3N2C1=O (single isomer, unassigned; isomer 2) | Fu (Plasma): 10%; logD [3]: 1.9
11 | 0.14 | > 1000 µM | 0.6 | – | – | – | 3700 nM | C#CCOCC(C(=O)N1CC[C@@H]2C[C@@H]3CCC[C@H](NC(=O)[C@H](C)NC)C(=O)N3[C@@H]2C1)c1ccccc1 (stereo in doubt; 42) | CLH (Liver microsome): 23 µL/min/mg
12 | – | – | – | – | – | – | > 11000 nM | C#CCOCC(C(=O)N1CC[C@@H]2C[C@@H]3CCC[C@H](NC(=O)[C@H](C)NC)C(=O)N3[C@@H]2C1)c1ccccc1 (stereo in doubt; 43) | Fu (Plasma): 17%; logD [3]: 0.8; CLH (Liver microsome): 8.5 µL/min/mg
13 | 0.051 | > 1000 µM | 1.8 | – | – | – | 10 nM | CN[C@@H](C)C(=O)N[C@H]1CCC[C@H]2C[C@H]3CCN(C(=O)C(OCC#CC#CCOC(C(=O)N4CC[C@@H]5C[C@@H]6CCC[C@H](NC(=O)[C@H](C)NC)C(=O)N6[C@@H]5C4)c4ccccc4)c4ccccc4)C[C@H]3N2C1=O (stereo in doubt; 53) | INH [7]: > 33 µM; INH [8]: > 20 µM; microsomal CLint [9]: 7 µL/min/mg
